{"source": "paper PMC3003444", "about": "(Chemistry & biology, 2010)", "key": {"[1]": {"tested_on": "Clostridium difficile", "assay": "microbe, parasite or virus in culture", "assay_type": "cell-based", "settings": "Clostridioides difficile"}, "[2]": {"tested_on": "Prevotella copris", "assay": "microbe, parasite or virus in culture", "assay_type": "cell-based"}, "[3]": {"tested_on": "Bacteroides fragilis", "assay": "microbe, parasite or virus in culture", "assay_type": "cell-based"}, "[4]": {"tested_on": "Staphylococcus epidermidis", "assay": "microbe, parasite or virus in culture", "assay_type": "cell-based"}, "[5]": {"tested_on": "Streptococcus pneumoniae", "assay": "microbe, parasite or virus in culture", "assay_type": "cell-based"}, "[6]": {"tested_on": "Enterococcus faecalis", "settings": "cited from earlier work"}, "[7]": {"tested_on": "Clostridium bolteae", "assay": "microbe, parasite or virus in culture", "assay_type": "cell-based", "settings": "Enterocloster bolteae"}, "[8]": {"tested_on": "Streptococcus agalactiae", "assay": "microbe, parasite or virus in culture", "assay_type": "cell-based"}, "[9]": {"tested_on": "Pseudomonas aeruginosa", "assay": "microbe, parasite or virus in culture", "assay_type": "cell-based"}, "[10]": {"tested_on": "Lactobacillus plantarum", "assay": "microbe, parasite or virus in culture", "assay_type": "cell-based", "settings": "Lactiplantibacillus plantarum"}, "[11]": {"tested_on": "Escherichia coli", "assay": "microbe, parasite or virus in culture", "assay_type": "cell-based"}, "[12]": {"tested_on": "Staphylococcus aureus", "assay_type": "cell-based", "settings": "S. aureus mutant, Pro^29 replaced by Ser"}, "[13]": {"tested_on": "Lactobacillus acidophilus", "assay": "microbe, parasite or virus in culture", "assay_type": "cell-based"}, "[14]": {"tested_on": "Clostridium perfringens", "assay": "microbe, parasite or virus in culture", "assay_type": "cell-based"}, "[15]": {"tested_on": "Corynebacterium efficiens", "assay": "microbe, parasite or virus in culture", "assay_type": "cell-based"}, "[16]": {"tested_on": "E. coli strains harboring the indicated amino acid at SPase residue 84"}, "[17]": {"tested_on": "Lactobacillus gasseri", "assay": "microbe, parasite or virus in culture", "assay_type": "cell-based"}, "[18]": {"tested_on": "Yersinia pestis", "assay": "microbe, parasite or virus in culture", "assay_type": "cell-based"}, "[19]": {"tested_on": "Bacillus subtilis", "assay": "microbe, parasite or virus in culture", "assay_type": "cell-based"}, "[20]": {"tested_on": "Clostridia and Bacteriodetes", "assay": "MIC, Clostridia and Bacteriodetes", "assay_type": "cell-based"}, "[21]": {"tested_on": "Streptococcus pyogenes", "assay": "microbe, parasite or virus in culture", "assay_type": "cell-based"}, "[22]": {"tested_on": "Corynebacterium glutamicum", "assay": "microbe, parasite or virus in culture", "assay_type": "cell-based"}, "[23]": {"tested_on": "Helicobacter pylori", "assay": "microbe, parasite or virus in culture", "assay_type": "cell-based"}, "[24]": {"tested_on": "Lactobacillales", "assay": "organism not typed", "assay_type": "cell-based"}, "[25]": {"tested_on": "E. coli strains harboring the indicated amino acid at SPase residue 84", "assay": "MIC for E. coli strains with mutant SPase residue 84", "settings": "for MIC: Escherichia coli"}, "[26]": {"tested_on": "Rhodococcus opacus", "assay": "microbe, parasite or virus in culture", "assay_type": "cell-based"}, "[27]": {"tested_on": "Chlamydia trachomatis", "assay": "microbe, parasite or virus in culture", "assay_type": "cell-based"}, "[28]": {"tested_on": "Staphylococcus haemolyticus", "assay": "microbe, parasite or virus in culture", "assay_type": "cell-based"}, "[29]": {"tested_on": "Brevibacillus brevis", "assay": "microbe, parasite or virus in culture", "assay_type": "cell-based"}, "[30]": {"tested_on": "Lactococcus lactis", "assay_type": "cell-based"}, "[31]": {"tested_on": "Klebsiella pneumoniae", "assay": "microbe, parasite or virus in culture", "assay_type": "cell-based"}}, "note": "Like-named read-outs stand apart in the source and are kept apart here. Marks after values point to notes of the source that are not given here."}
{"compound": "CCCCCCCCCCCCCCCC(=O)N(C)[C@H](CO)C(=O)N[C@H](C)C(=O)NCC(=O)N(C)[C@@H]1C(=O)N[C@@H](C)C(=O)N[C@H](C(=O)O)Cc2ccc(O)c(c2)-c2cc1ccc2O", "note": "[arylomycin C16]", "values": [{"measurement": "MIC", "setting": "[1]", "value": "> 16", "unit": "µg/mL"}, {"measurement": "MIC", "setting": "[2]", "value": "> 16", "unit": "µg/mL"}, {"measurement": "MIC", "setting": "[3]", "value": "> 16", "unit": "µg/mL"}, {"measurement": "MIC", "setting": "[4]; Staphylococcus epidermidis", "value": 0.25, "unit": "µg/mL"}, {"measurement": "elevated MIC compared to the wild type strain", "setting": "[4]; resistant mutants (remainder), SpsIB Ser to Pro at position 31", "value": "greater than 256 fold"}, {"measurement": "elevated MIC compared to the wild type strain", "setting": "[4]; resistant mutants (~75%), SpsIB Ser to Pro at position 29", "value": 32, "unit": "fold"}, {"measurement": "MIC", "setting": "[5]", "value": 16, "unit": "µg/mL"}, {"measurement": "MIC", "setting": "[6]", "value": ">64 ^b μg/ml"}, {"measurement": "MIC", "setting": "[7]", "value": "> 16", "unit": "µg/mL"}, {"measurement": "MIC", "setting": "[8]", "value": "> 128", "unit": "µg/mL"}, {"measurement": "decrease of MIC on permeabilizing with polymyxin B nonapeptide", "setting": "[9]; P. aeruginosa Pro to Ser mutant", "value": "≤ 4", "unit": "fold"}, {"measurement": "sensitivity of Pro to Ser SPase mutant strain", "setting": "[9]; P. aeruginosa mutant, Pro^84 replaced by Ser", "value": "high degree of sensitivity"}, {"measurement": "MIC", "setting": "[9]; Pseudomonas aeruginosa", "value": "> 128", "unit": "µg/mL"}, {"measurement": "MIC", "setting": "[10]", "value": "> 128", "unit": "µg/mL"}, {"measurement": "MIC", "setting": "[11]", "value": "> 128", "unit": "µg/mL"}, {"measurement": "sensitivity of Pro to Ser SPase mutant strain", "setting": "[12]", "value": "high degree of sensitivity"}, {"measurement": "MIC", "setting": "[13]", "value": "> 128", "unit": "µg/mL"}, {"measurement": "MIC", "setting": "[14]", "value": "> 16", "unit": "µg/mL"}, {"measurement": "MIC", "setting": "[15]", "value": "> 64", "unit": "µg/mL"}, {"measurement": "decrease of MIC on permeabilizing with polymyxin B nonapeptide", "setting": "[16]", "value": "≤ 4", "unit": "fold"}, {"measurement": "MIC", "setting": "[17]", "value": "> 128", "unit": "µg/mL"}, {"measurement": "MIC", "setting": "[18]", "value": 4, "unit": "µg/mL"}, {"measurement": "MIC", "setting": "[19]", "value": "> 128", "unit": "µg/mL"}, {"measurement": "MIC", "setting": "[20]", "value": "> 16", "unit": "µg/mL"}, {"measurement": "MIC", "setting": "[21]", "value": 16, "unit": "µg/mL"}, {"measurement": "MIC", "setting": "[22]", "value": 2, "unit": "µg/mL"}, {"measurement": "MIC", "setting": "[23]", "value": 4, "unit": "µg/mL"}, {"measurement": "MIC", "setting": "[24]", "value": "> 64", "unit": "µg/mL"}, {"measurement": "sensitivity of Pro to Ser SPase mutant strain", "setting": "[25]; E. coli mutant, Pro^84 replaced by Ser", "value": "high degree of sensitivity"}, {"measurement": "MIC", "setting": "[25]; His at SPase residue 84 (temperature sensitive phenotype)", "value": 4, "unit": "µg/mL"}, {"measurement": "MIC", "setting": "[25]; Phe at SPase residue 84 (temperature sensitive phenotype)", "value": 2, "unit": "µg/mL"}, {"measurement": "MIC", "setting": "[25]; Pro at SPase residue 84, detection limit 256 μg/ml", "value": "> 256", "unit": "µg/mL"}, {"measurement": "MIC", "setting": "[25]; read-out: MICs, all of the other amino acids (not Pro) at SPase residue 84", "value": "≤ 16", "unit": "µg/mL"}, {"measurement": "MIC", "setting": "[26]", "value": 2, "unit": "µg/mL"}, {"measurement": "MIC", "setting": "[27]", "value": 6, "unit": "µg/mL"}, {"measurement": "MIC", "setting": "[28]", "value": 2, "unit": "µg/mL"}, {"measurement": "MIC", "setting": "[29]", "value": "> 64", "unit": "µg/mL"}, {"measurement": "MIC", "setting": "[30]", "value": "16, >128 ^a μg/ml"}, {"measurement": "MIC", "setting": "[31]", "value": "> 128", "unit": "µg/mL"}]}
